Data on two molecules can be found in patent publication US7608282B2, “Transdermal granisetron” (Strakan International Limited, priority 2003, dated 2009).

Counter-ions that a name gives are not always drawn.

For data set [1] the following is noted: acrylic adhesives, WO98/53815; cited from earlier work.
Data set [2] has as its system delayed emesis in cancer patients. Put plainly: continual IV infusion of granisetron in cancer patients, delayed emesis (Kalaycio et al.). In kind it is in vivo, human. The note with it: continual IV infusion at 40 μg/h. An excerpt: The minimum therapeutic plasma level required for efficacious use of any drug is ideally assessed by titrated, prolonged IV infusion studies coupled to clinical response in patients.

For data set [3] the following is noted: cited from earlier work.
For data set [4] the following is noted: single administration of a 1 mg tablet, human volunteers; cited from earlier work.
Data set [5] concerns delayed emesis in cancer patients. The note with it: continual IV infusion at 40 μg/h; cited from earlier work.
Data set [6] concerns post-operative nausea and vomiting. The note with it: doses as low as 0.1 mg; cited from earlier work.
The mark [7] stands for this setting: continual twice daily dosing of 1 mg in cancer patients.

For `CN1[C@@H]2CC[C@H]1C[C@@H](OC(=O)c1c[nH]c3ccccc13)C2` [tropisetron], the “stability in adhesives containing nucleophilic (hydroxyl) moieties” value in data set [1] is listed as “unstable”.
On to `CN1C2CCCC1CC(NC(=O)c1nn(C)c3ccccc13)C2` (stereo not drawn) [granisetron, N-endo-9-methyl-9-azabicyclo[3.3.1]non-3-yl-1-methylindazole-3-carboxamide hydrochloride], for which, in data set [2], the plasma level maintained result is recorded as “approximately 1.5 ng/ml”. Moreover, in data set [3] (setting [7]), the “average peak plasma levels” value is 6 ng/mL and the clearance is 0.52 L/h/kg. The Tmax result in data set [3] (oral granisetron, population not given) is “approximately 2 hours”. Moreover, the Cmax in data set [4] was 3.6 ng/mL. Also, the “effect on delayed emesis” value in data set [5] is “alleviate delayed emesis”. Moreover, in data set [6], the “prevention of post-operative nausea and vomiting” value is on record as “effective”.
